Results published in patent US20080051416A1, “Novel Compounds” (SMITHKLINE BEECHAM CORPORATION, priority 2004, published 2008).

Key:
[1] = molecular target: p38 (Homo sapiens, UniProt Q16539); experiment: Fluorescence Anisotropy Kinase Binding Assay; details: p38 enzyme 12 nM, fluorescent ligand 5 nM
Description: Fluorescence Anisotropy Kinase Binding Assay
The concentration of kinase enzyme should preferably be ≧1×Kf. The concentration of fluorescent ligand required will depend on the instrumentation used, and the fluorescent and physicochemical properties. The concentration used must be lower than the concentration of kinase enzyme, and preferably less than half the kinase enzyme concentration. A typical protocol is:
All components dissolved in Buffer of final composition 62.5 mM HEPES, pH 7.5, 1.25 mM CHAPS, 1.25 mM DTT, 12.5 mM MgCl2 3.3% DMSO.
p38 Enzyme concentration: 12 nM
Fluorescent ligand concentration: 5 nM
Test compound concentration: 0.1 nM-100 uM
Components incubated in 30 ul final volume in NUNC 384 well black microtitre plate until equilibrium reached (5-30 mins)
Fluorescence anisotropy read in LJL Acquest.
Definitions: Ki=dissociation constant for inhibitor binding
• Kf=dissociation constant for fluorescent ligand binding
The fluorescent ligand is the following compound: [drawing 22] which is derived from 5-[2-(4-aminomethylphenyl)-5-pyridin-4-yl-1H-imidazol-4-yl]-2-chlorophenol and rhodamine green. Results

[2] = molecular target: T1, Recombinant human p38α (Homo sapiens, UniProt Q16539); experiment: HTRF Assay: Time-Resolved Fluorescence Resonance Energy Transfer Kinase Assay; assay type: biochemical; details: TR-FRET; MKK6-activated p38α 100 pM, biotinylated-GST-ATF2 substrate
T1 construct: His; made in house
T1 sequence (Q16539 whole entry): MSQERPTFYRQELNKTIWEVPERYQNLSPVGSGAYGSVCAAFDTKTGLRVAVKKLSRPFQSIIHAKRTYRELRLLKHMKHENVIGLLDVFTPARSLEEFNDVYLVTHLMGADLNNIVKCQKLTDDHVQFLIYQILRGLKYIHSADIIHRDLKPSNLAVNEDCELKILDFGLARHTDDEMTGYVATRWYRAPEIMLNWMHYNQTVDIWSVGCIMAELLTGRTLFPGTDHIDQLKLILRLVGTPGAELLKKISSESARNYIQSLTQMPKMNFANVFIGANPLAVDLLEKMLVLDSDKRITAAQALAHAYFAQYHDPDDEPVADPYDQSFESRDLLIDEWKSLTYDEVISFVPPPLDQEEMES
Description: Time-Resolved Fluorescence Resonance Energy Transfer Kinase Assay
Recombinant human p38α was expressed as a His-tagged protein. To activate this protein, 3 μM unactivated p38α was incubated in 200 mM Hepes pH7.4, 625 mM NaCl, 1 mM DTT with 27 nM active MKK6 (Upstate), 1 mM ATP and 10 mM MgCl2. The activity of the MKK6-activated p38α was assessed using a time-resolved fluorescence resonance energy transfer (TR-FRET) assay.
Biotinylated-GST-ATF2 (residues 19-96, 400 nM final), ATP ([…] final) and MgCl2 (5 mM final) in assay buffer (40 mM HEPES pH 7.4, 1 mM DTT) were added to wells containing […] of various concentrations of compound or DMSO vehicle (3% final) in NUNC 384 well black plate. The reaction was initiated by the addition of MKK6-activated p38 (100 pM final) to give a total volume of 30 μl. Alternatively, various concentrations of compound were incubated with activated p38 for up to 90 min, followed by initiation with the addition of ATF2, ATP and MgCl2. The reaction was incubated for 120 minutes at room temperature, then terminated by the addition of 15 μl of 100 mM EDTA pH 7.4. Detection reagent (15 μl) in buffer (100 mM HEPES pH 7.4, 150 mM NaCl, 0.1% w/v BSA, 1 mM DTT) containing antiphosphothreonine-ATF2-71 polyclonal antibody (Cell Signalling Technology, Beverly Mass., USA) labelled with W-1024 europium chelate (Wallac OY, Turku, Finland), and APC-labelled streptavidin (Prozyme, San Leandro, Calif., USA) was added and the reaction was further incubated for 60 minutes at room temperature. The degree of phosphorylation of GST-ATF2 was measured using a Packard Discovery plate reader (Perkin-Elmer Life Sciences, Pangbourne, UK) as a ratio of specific 665 nm energy transfer signal to reference europium 620 nm signal. Differences in IC50 with or without preincubation of enzyme with compound was interpreted as time-dependence.

[3] = tested on: TGF-β-induced increases in fibronectin and thrombospondin; details: literature, Laping et al., 2002; cited from earlier work

p38, sequence (Q16539 whole entry): as above

| IC50 [1] [nM] | IC50 [2] [nM] | melting point | Structure (SMILES) | inhibition of TGF-β-induced increases in fibronectin and thrombospondin [3] |
| --- | --- | --- | --- | --- |
| > 15800 | > 1580 |  | Cc1c(F)cc(C(=O)N[C@H](C)CO)cc1-c1ccc(C(=O)NCC(C)(C)C)cc1C(N)=O [Example 75, N^4-(2,2-dimethylpropyl)-5′-fluoro-N^3′-[(1R)-2-hydroxy-1-methylethyl]-6′-methyl-2,3′,4-biphenyltricarboxamide] |  |
| > 15800 | > 25100 |  | Cc1ccc(C(=O)NCCO)cc1-c1ccc(C(=O)NCC(C)(C)C)cc1C(=O)O [Example 86, 4-{[(2,2-dimethylpropyl)amino]carbonyl}-5′-{[(2-hydroxyethyl)amino]carbonyl}-2′-methyl-2-biphenylcarboxylic acid] |  |
| > 15800 |  |  | COC(=O)c1cc(C(=O)NCC(C)(C)C)ccc1-c1cc(C(=O)NCCO)ccc1C [Example 78, methyl 4-{[(2,2-dimethylpropyl)amino]carbonyl}-5′-{[(2-hydroxyethyl)amino]carbonyl}-2′-methyl-2-biphenylcarboxylate] |  |
| > 1580 | > 1580 | 160 to 165 °C | Cc1c(F)cc(C(=O)N[C@@H](C)C(C)(C)C)cc1-c1ccc(C(=O)NCC(C)(C)C)cc1C(=O)Nc1nccs1 [Example 25, N^4-(2,2-dimethylpropyl)-5′-fluoro-6′-methyl-N^2-1,3-thiazol-2-yl-N^3′-[(1S)-1,2,2-trimethylpropyl]-2,3′,4-biphenyltricarboxamide] |  |

The remaining lines, values behind:

| Structure (SMILES) | IC50 [1] [nM] | IC50 [2] [nM] | melting point | inhibition of TGF-β-induced increases in fibronectin and thrombospondin [3] |
| --- | --- | --- | --- | --- |
| Cc1c(F)cc(C(=O)NCC(C)C)cc1-c1ccc(C(=O)NCC(C)(C)C)cc1C(=O)Nc1nccs1 [Example 14, N^4-(2,2-dimethylpropyl)-5′-fluoro-6′-methyl-N^3′-(2-methylpropyl)-N^2-1,3-thiazol-2-yl-2,3′,4-biphenyltricarboxamide] |  |  | > 194 °C (dec.) |  |
| Cc1c(F)cc(C(=O)NCCC(C)C)cc1-c1ccc(C(=O)NCC(C)(C)C)cc1C(=O)Nc1nccs1 [Example 16, N^4-(2,2-dimethylpropyl)-5′-fluoro-6′-methyl-N^3′-(3-methylbutyl)-N^2-1,3-thiazol-2-yl-2,3′,4-biphenyltricarboxamide] |  |  | 159 to 164 °C |  |
| COc1nccc(-c2c(-c3ccc(F)cc3)ncn2C2CCNCC2)n1 [SB-242235] |  |  |  | inhibited |
| Cc1c(F)cc(C(=O)NCC2CC2)cc1-c1ccc(C(=O)NCC(C)(C)C)cc1C(=O)Nc1nccs1 [Example 15, N^3′-(cyclopropylmethyl)-N^4-(2,2-dimethylpropyl)-5′-fluoro-6′-methyl-N^2-1,3-thiazol-2-yl-2,3′,4-biphenyltricarboxamide] |  |  | 179 to 183 °C |  |
| Cc1c(F)cc(C(=O)N[C@H](C)C(C)C)cc1-c1ccc(C(=O)NCC(C)(C)C)cc1C(=O)Nc1nccs1 [Example 13, N^3′-[(1R)-1,2-dimethylpropyl]-N4-(2,2-dimethylpropyl)-5′-fluoro-6′-methyl-N^2-1,3-thiazol-2-yl-2,3′,4-biphenyltricarboxamide] | > 1580 | > 1580 | 240 to 244 °C |  |
| Cc1c(F)cc(C(=O)N[C@H](C)C(C)(C)C)cc1-c1ccc(C(=O)NCC(C)(C)C)cc1C(=O)Nc1nccs1 [Example 10, N^4-(2,2-dimethylpropyl)-5′-fluoro-6′-methyl-N^2-1,3-thiazol-2-yl-N^3′-[(1R)-1,2,2-trimethylpropyl]-2,3′,4-biphenyltricarboxamide] | > 1580 | > 1580 | > 125 °C (dec.) |  |
| Cc1c(F)cc(C(=O)N[C@@H](C)C(C)C)cc1-c1ccc(C(=O)NCC(C)(C)C)cc1C(=O)Nc1nccs1 [Example 12, N^3′-[(1S)-1,2-dimethylpropyl]-N^4-(2,2-dimethylpropyl)-5′-fluoro-6′-methyl-N^2-1,3-thiazol-2-yl-2,3′,4-biphenyltricarboxamide] | > 1580 | > 1580 | 234 to 239 °C |  |
